Measured values published in patent US20150239824A1, “BRANCHED OR MACROCYCLIC POLYAMINES AND USES THEREOF” (UNIVERSITE DE STRASBOURG, priority 2012, published 2015).
“Also recorded” adds a separate entry of the source.

Legend:
NIH3T3 cells [1] = assay: Cell entry of polyamines (Cy3 fluorescence, injection); type: cell-based, mouse; conditions: 100 μM, 20 min
Experimental: (§1) Polyamine compounds were dissolved in Milli-Q water to give a stock solution of 30 mM. For immunostaining and microscopy experiments, polyamine compounds were added to the cell medium at a final concentration of 100 μM, except for experiments which tested efficiency. For immunostaining experiments, NIH3T3 cells were incubated with Blebbistatin (30 μM), ML7 (10 μM), Y27632 (10 μM), Cytochalasin D (1 μM) (Sigma-Aldrich) for 30 min, LY294002 (50 μM) (Sigma-Aldrich) for 30 minutes. Latrunculin A (1.5 μM) (Sigma-Aldrich) was added for 5 min. After additional 20 min incubation with 100 μM polyamine, cells were fixed and stained.
Fluorescent images were taken in a Fluorescence Nikon Ti microscope (60× oil objective, NA 1.25) combined with a Photometrics CoolSNAP HQ2 camera and NIS acquisition software.

F-actin with ADF = biological target: T1, F-actin with ADF (Oryctolagus cuniculus, UniProt P68135); assay: ADF-induced depolymerization of gelsolin-capped filaments and sedimentation assay; type: biochemical, rabbit
T1 construct: Actin was purified from rabbit skeletal muscle, isolated in CaATP-G-actin form by size exclusion chromatography; from tissue; host or cells: rabbit skeletal muscle (actin); bacteria (ADF, gelsolin)
Source text: Actin-based motile processes result from site-directed initiation of actin assembly by two major signal-responsive protein machineries. WASP family proteins use the Arp2/3 complex to branch filaments at the membrane and assemble a dendritic protrusive meshwork, while formins initiate barbed-end processive assembly of actin bundles. In both cases, force is produced by barbed-end growth fueled by regulated treadmilling. Treadmilling that drives the formation of dendritic actin arrays is enhanced by the synergistic effects of capping proteins, profilin and Actin Depolymerizing Factor (ADF/cofilin). ADF is known to destabilize actin filaments, promoting a large increase in pointed end depolymerization rate, the limiting step in filament treadmilling^17. FIG. 6 Ba-c confirms that gelsolin-capped filaments depolymerize up to a maximum of 30-fold faster in the presence of ADF, in agreement with previous data^17. […] In the presence of cyclic or branched polyamines, the rate of depolymerization was much less enhanced by ADF (about three-fold at 3 μM ADF, versus 30-fold in the control without polyamines).
(§2) Actin was purified from rabbit skeletal muscle, isolated in CaATP-G-actin form by size exclusion chromatography in G buffer (5 mM Tris-Cl—, pH 7.8, 0.1 mM CaCl2, 0.2 mM ATP, 1 mM DTT, 0.01% NaN3) and pyrenyl-labeled as described^1. […]

[2] = biological target: T2, N-WASP-coated beads, actin-based propulsion (Oryctolagus cuniculus, UniProt P68135); assay: Reconstituted motility assay of N-WASP-coated beads; type: biochemical; conditions: 50 μM added a few minutes after initiation of comet tail formation
T2 construct: Actin was purified from rabbit skeletal muscle, isolated in CaATP-G-actin form by size exclusion chromatography; from tissue; host or cells: rabbit skeletal muscle (actin); sf9/baculovirus (N-WASP); bacteria (ADF, profilin, Capping Protein); bovine brain (Arp2/3)
Experimental: Reconstituted motility assays were performed using 2 μm diameter carboxylated polystyrene beads functionalized with N-WASP (170 nM, 2 hours, followed by 1% BSA neutralization for 20 min)^19. Beads were placed in a reconstituted motility mix containing 7.5 μM F-actin, 75 nM Capping Protein, 2 μM profilin, 7 μM ADF, 75 nM Arp2/3 complex in × buffer (10mM HEPES, 0.1M KCl, 1 mM MgCl2, 0.1 mM CaCl2, 1 mM ATP, 7 mM DTT, 1.5 mM DABCO at pH 7.8, 0.5% BSA and 0.2% methylcellulose). C8N6 BPA was then added at 50 μM. Observations were made using a phase contrast Olympus AX70 microscope controlled by MetaMorph 6.3r7 with CCD camera and 20× phase objective. Data analysis was performed to extract bead velocity with ImageJ software. Bead velocity was measured and averaged on 10-15 beads.
(§3) Actin was purified from rabbit skeletal muscle, isolated in CaATP-G-actin form by size exclusion chromatography in G buffer (5 mM Tris-Cl—, pH 7.8, 0.1 mM CaCl2, 0.2 mM ATP, 1 mM DTT, 0.01% NaN3) and pyrenyl-labeled as described^1. Human gelsolin, mouse profilin, mouse Capping Protein and human ADF were bacterial recombinant proteins, and Arp2/3 was purified from bovine brain as described in Egile et al.^39. His6-tagged human N-WASP was expressed in sf9 cells using the baculovirus expression system and purified as described^39. Spectrin-actin seeds were isolated and purified from human blood cells^40.

NIH3T3 cells [3] = assay: Immunofluorescence of microtubule and intermediate filament organization; type: cell-based, mouse; conditions: 100 μM, 20 min
Experimental: (§4) Cells were fixed in 3% PFA (Sigma-Aldrich) for 17 min and then permeabilized with 0.5% Triton solution (Sigma-Aldrich) for 3 min and rinsed twice with 1× PBS. For actin and focal contacts staining, cells were incubated with Alexa 488 phalloidin (1:200, Molecular Probes) and anti-paxillin monoclonal primary antibody (1:50, BD Biosciences) for 45 min at RT. Samples were finally mounted in 50% Glycerol/1× PBS on glass slides and protected from drying. For the intermediate filaments staining, cells were quenched in NaBH4/PBS solution for 10 min at RT. Cells were incubated first with anti-vimentin (1:500, Convance) for 1 h and then with goat anti-guinea pig Dylight 594 (1:1000, Jackson) for 45 min at RT. Microtubules were fixed using methanol at −20° C. for 10 min and stained with mouse monoclonal anti-alpha tubulin (1:50, Sigma-Aldrich) for 45 min at RT.

NIH3T3 cells [4] = assay: Growth of lamellipodia / increase in projected cell area in NIH3T3 cells; type: cell-based, mouse; conditions: 100 μM
Experimental: as §1
(§5) Increase in cell area for given time point (n=5, 10 and 20 min) was calculated by (A1n-A0)/A0, where A0 and A1n are the areas before and after polyamine addition, respectively. Kymographs for the analysis of actin retrograde flow in the lamellipodia region were performed in ImageJ. Moving features were visualized as diagonal streaks with slope depending on the velocity of movement.
as §4
NIH3T3 mouse fibroblast and REF52 rat embryo fibroblasts (ATCC) were cultured in DMEM supplemented with 10% calf bovine serum (BCS, Sigma-Aldrich) or fetal bovine serum (FCS, Hyclone) and 1% Pen/Streptomycin (InVitrogen). […]

NIH3T3 cells [5] = assay: Actin filament stability in Triton-treated cells; type: cell-based, mouse; conditions: 100 μM, then 0.1% Triton
[6] = biological target: T3, actin filament barbed ends (Oryctolagus cuniculus, UniProt P68135); assay: Seeded barbed end growth assay (spectrin-actin seeds); type: biochemical, rabbit; conditions: neomycin up to at least 100 μM
T3 construct: Actin was purified from rabbit skeletal muscle, isolated in CaATP-G-actin form by size exclusion chromatography; from tissue; host or cells: rabbit skeletal muscle
Experimental: (§6) Actin assembly was monitored using as probes the increase in light scattering intensity (310 nm, 90° angle) and in the fluorescence of pyrenyl-actin (excitation 366 nm, emission 407 nm). Measurements were made at room temperature in a Xenius Safas spectrofluorimeter. CaATP-G-actin was converted into MgATP-G-actin by addition of 20 μM MgCl2 and 0.2 mM EGTA to a solution of 10 μM CaATP-G-actin in G buffer. Polymerization was triggered by addition of MgCl2 (1 mM final), EGTA (0.2 mM final) and KCl as indicated to MgATP-G-actin. The 1:1 CaATP-actin complex was obtained by removing free ATP by two consecutive treatments of CaATP-G-actin in G buffer with 10% suspension vol/vol of Dowex-I (BioRad) in G buffer without ATP.
Seeded barbed end growth assays were performed at 2.5 μM actin and 0.1 nM spectrin-actin seeds^38. Pointed end growth assays were performed similarly but using preformed gelsolin-actin complexes (2 nM final) as seeds. The initial rate of fluorescence increase was measured.
as §2

REF 52 cell = assay: Actin retrograde flow in lamellipodia; type: cell-based, rat; conditions: lamellipodia region, kymographs, n=6 cells
Experimental: as §5
NIH3T3 mouse fibroblast and REF52 rat embryo fibroblasts (ATCC) were cultured in DMEM supplemented with 10% calf bovine serum (BCS, Sigma-Aldrich) or fetal bovine serum (FCS, Hyclone) and 1% Pen/Streptomycin (InVitrogen). Cells were grown at 37° C. and 5% CO2. For microscopy and immunostaining, cells were trypsinized (0.25% Trypsin-EDTA, InVitrogen), centrifuged and plated on glass coverslips. For live cell observation, Leibovitz's L-15 1× medium (InVitrogen) supplemented with 10% serum (FCS for REF52 and BCS for NIH3T3 cells) and 1% antibiotics was used.
For retrograde flow experiments, surfaces were coated with poly-lysine (Sigma-Aldrich) as described in Verkhovsky et al.^20.
Actin retrograde flow velocity experiments were performed in a Leica DM 2500 Microscope with a 100× oil objective at 37° C. Data acquisition was 1 image/5 sec.

F-actin = biological target: T4, F-actin (Oryctolagus cuniculus, UniProt P68135); assay: Critical concentration plots, free barbed ends; type: biochemical, rabbit; conditions: F-actin at steady state
T4 construct: Actin was purified from rabbit skeletal muscle, isolated in CaATP-G-actin form by size exclusion chromatography; from tissue; host or cells: rabbit skeletal muscle
Experimental: (§7) Critical concentration plots were performed by serial dilution of F-actin (10% pyrenyl-labeled) in F buffer containing the desired amounts of BPA/MPA. Pyrenyl-actin fluorescence was read after overnight incubation in the dark.
as §3

actin = biological target: T5, actin (Oryctolagus cuniculus, UniProt P68135); assay: Actin assembly and bundling (light scattering, pyrenyl-actin fluorescence, electron microscopy); type: biochemical, rabbit; conditions: for bundling / polymerization of actin filaments in vitro: light scattering, neomycin vs BPA: low ionic strength (G-buffer), up to at least 100 μM
T5 construct: Actin was purified from rabbit skeletal muscle, isolated in CaATP-G-actin form by size exclusion chromatography; from tissue; host or cells: rabbit skeletal muscle
Experimental: as §6, §3
Electron microscopy observation of actin assemblies in the presence of C7N6 MPA was performed using a Philips CM12 electron microscope at 80 kV. Samples containing actin (2 μM) in either in G or F form and C7N6 MPA were prepared and placed on glow-discharged carbon-coated grids.

[7] = biological target: T6, actin with Capping Protein (Oryctolagus cuniculus, UniProt P68135); assay: Critical concentration and steady-state F-actin in the presence of Capping Protein; type: biochemical, rabbit; conditions: 100 μM, 1 μM total actin
T6 construct: Actin was purified from rabbit skeletal muscle, isolated in CaATP-G-actin form by size exclusion chromatography; from tissue; host or cells: rabbit skeletal muscle (actin); bacteria (Capping Protein)
Experimental: as §7, §3

Row | Compound | entry into cells (NIH3T3 cells [1]) | entry into cells (NIH3T3 cells [1]; listed as Cy3-labeled C8N6 BPA) | ADF-induced increase in rate of F-actin depolymerization (F-actin with ADF; gelsolin-capped filaments) | steady state of actin assembly in the presence of ADF (F-actin with ADF; sedimentation, F-actin 3 μM, 0.3 mM polyamine, one hour) | propulsion rate of N-WASP-coated beads [2] | organization of microtubules and intermediate filaments (NIH3T3 cells [3]) | focal contacts (paxillin immunofluorescence) (NIH3T3 cells [4]; 20 min) | actin bundles within the lamellipodial array (NIH3T3 cells [4]; 20 min, actin staining) | growth of lamellipodia (NIH3T3 cells [4]; NIH3T3 cells, compound added to the cell culture medium) | stabilization of actin filaments in Triton-treated cells (NIH3T3 cells [5]) | inhibition of barbed-end growth [6] | actin retrograde flow velocity (REF 52 cell) | critical concentration for filament assembly (F-actin) | critical concentration for filament assembly (F-actin; listed as BPA) | assembly of actin at physiological ionic strength (actin; 1 mM MgCl2, 0.1 M KCl) | bundling / polymerization of actin filaments in vitro (actin) | bundling / polymerization of actin filaments in vitro (actin; listed as BPA) | nucleation / short polymers in the presence of capping protein [7] | nucleation / short polymers in the presence of capping protein ([7]; listed as BPA)
1 | CC[N+](CC)(CC)CCC[N+]1=C(/C=C/C=C2/N(CCCCCC(=O)NCCCN(CCCN)CCCCCCCCN(CCCN)CCCN)c3ccccc3C2(C)C)C(C)(C)c2ccccc21 [C8N6 BPA-Cy3] | the polyamines enter the cells | entered the cell and displayed the same effect as the unlabeled C8N6 BPA; also recorded: the polyamines enter the cells |  |  |  |  |  |  |  |  |  |  |  |  |  |  |  |  | 
2 | NCCCN(CCCN)CCCCCCCCN(CCCN)CCCN [C8N6 BPA] |  |  | greatly weakened | practically unaffected; also recorded: not affected | dramatic decrease in propulsion rate | no effect on microtubules and intermediate filaments organization | exhibited the expected distribution and shapes of focal contacts | bundles of actin arranged in microspikes were observed | promote growth of lamellipodia | stabilizes actin filaments in Triton-treated cells like Jasplakinolide | inhibition | clear reduction in the actin retrograde flow | not significantly affected | strictly superimposable | induced assembly of actin | induce ATP sensitive bundling of actin filaments | massive bundling is induced | enhance nucleation by capping proteins | stabilizes a greater number of short polymers in the presence of capping protein
3 | neomycin [reference compound] |  |  |  |  |  |  |  |  |  |  | does not inhibit barbed-end growth; also recorded: not inhibited |  |  |  |  | does not induce bundling of actin; also recorded: does not promote polymerization of actin |  |  | 
